Laboratory results: US20230135729A1, “COMPOUND WITH ANTI-SPORE ACTIVITY AND PHARMACEUTICAL COMPOSITION THEREOF” (priority 2020, published 2023)
≈ marks a conversion by molar mass, not a printed value.

How the values were obtained:
Type in all cases: cell-based
[1] = tested on: spores of ATCC BBA1870 strain; assay: Inhibition of germination of C. difficile spores (MIC), strain ATCC BBA1870; settings: Clostridioides difficile, ATCCBBA1870STRAIN, 1 h; strain 1870; sodium taurocholate as germinant, BHIS medium, 37° C., OD580 for 60 min; read-out: MIC (minimum concentration that completely inhibits spore germination)
How it was run: (§1)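 Germination was followed as the drop in OD580 over 60 min at 37° C in BHIS after adding sodium taurocholate to spores premixed with compound. Spores were first heat-activated (65° C, 30 min) and washed free of self-germinating spores. The inhibition rate was calculated against germinant and non-germinant controls.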

[2] = tested on: spores of ATCC 43255 strain; assay: Inhibition of germination of C. difficile spores (MIC), strain ATCC 43255; settings: Clostridioides difficile, ATCC43255, 1 h; strain 43255; sodium taurocholate as germinant, BHIS medium, 37° C., OD580 for 60 min; read-out: MIC (minimum concentration that completely inhibits spore germination)
How it was run: as §1

[3] = tested on: spores of ATCC 630 strain; assay: Inhibition of germination of C. difficile spores (MIC), strain ATCC 630; settings: Clostridioides difficile, ATCC630, 1 h; strain 630; sodium taurocholate as germinant, BHIS medium, 37° C., OD580 for 60 min; read-out: MIC (minimum concentration that completely inhibits spore germination)
How it was run: as §1

SMILES | MIC [1] | MIC [2] | MIC [3]
CC[C@@H](NC(=O)C[C@@H](C)[C@H]1CC[C@H]2[C@@H]3[C@H](O)C[C@@H]4CC(=O)CC[C@]4(C)[C@H]3CC[C@]12C)c1ccc(S(=O)(=O)O)s1 [Compound I-94] | 8 µM (≈ 4.64 µg/mL) | 16 µM (≈ 9.28 µg/mL) | 8 µM (≈ 4.64 µg/mL)
CC(C)[C@@H](NC(=O)C[C@@H](C)[C@H]1CC[C@H]2[C@@H]3C(=O)C[C@@H]4CC(=O)CC[C@]4(C)[C@H]3CC[C@]12C)c1cccs1 [Compound I-66] | 0.25 µM (≈ 0.128 µg/mL) | 0.25 µM (≈ 0.128 µg/mL) | 0.25 µM (≈ 0.128 µg/mL)
CCCCC(NC(=O)C[C@@H](C)[C@H]1CC[C@H]2[C@@H]3C(=O)C[C@@H]4CC(=O)CC[C@]4(C)[C@H]3CC[C@]12C)c1cccs1 (stereo partly drawn) [Compound I-42] | 2 µM (≈ 1.05 µg/mL) | 1 µM (≈ 0.526 µg/mL) | 1 µM (≈ 0.526 µg/mL)
CC[C@@H](NC(=O)C[C@@H](C)[C@H]1CC[C@H]2[C@@H]3[C@@H](O)C[C@@H]4CC(=O)CC[C@]4(C)[C@H]3CC[C@]12C)c1ccc(Cl)s1 [Compound I-163] | 32 µM (≈ 17.1 µg/mL) | 32 µM (≈ 17.1 µg/mL) | 32 µM (≈ 17.1 µg/mL)
CCC(NC(=O)C[C@@H](C)[C@H]1CC[C@H]2[C@@H]3[C@H](O)C[C@@H]4CC(=O)CC[C@]4(C)[C@H]3CC[C@]12C)c1ccc(Cl)s1 (stereo partly drawn) [Compound I-86] | 0.5 µM (≈ 0.267 µg/mL) | 0.5 µM (≈ 0.267 µg/mL) | 0.5 µM (≈ 0.267 µg/mL)
C[C@H](CC(=O)NC(CC(=O)O)c1ccccc1)[C@H]1CC[C@H]2[C@@H]3C(=O)C[C@@H]4CC(=O)CC[C@]4(C)[C@H]3CC[C@]12C (stereo partly drawn) [Compound I-64] | > 256 µM | > 256 µM | > 256 µM
CC[C@H](NC(=O)C[C@@H](C)[C@H]1CC[C@H]2[C@@H]3C(=O)C[C@@H]4CC(=O)CC[C@]4(C)[C@H]3CC[C@]12C)c1cccs1 [Compound I-36] | 8 µM (≈ 3.98 µg/mL) | 8 µM (≈ 3.98 µg/mL) | 4 µM (≈ 1.99 µg/mL)
CC(C)[C@@H](NC(=O)C[C@@H](C)[C@H]1CC[C@H]2[C@@H]3[C@H](O)C[C@@H]4CC(=O)CC[C@]4(C)[C@H]3CC[C@]12C)c1cccs1 [Compound I-136] | 1 µM (≈ 0.514 µg/mL) | 1 µM (≈ 0.514 µg/mL) | 1 µM (≈ 0.514 µg/mL)
CC(C)[C@@H](NC(=O)C[C@@H](C)[C@H]1CC[C@H]2[C@@H]3C(=O)C[C@@H]4CC(=O)CC[C@]4(C)[C@H]3CC[C@]12C)c1ccc(C=O)s1 [Compound I-200] | 32 µM (≈ 17.3 µg/mL) | 32 µM (≈ 17.3 µg/mL) | 16 µM (≈ 8.64 µg/mL)
C[C@H](CC(=O)NCc1cccs1)[C@H]1CC[C@H]2[C@@H]3C(=O)C[C@@H]4CC(=O)CC[C@]4(C)[C@H]3CC[C@]12C [Compound I-26] | 0.5 µM (≈ 0.235 µg/mL) | 1 µM (≈ 0.47 µg/mL) | 0.5 µM (≈ 0.235 µg/mL)
CC(C)[C@@H](NC(=O)C[C@@H](C)[C@H]1CC[C@H]2[C@@H]3[C@H](OC(=O)CCCCCCC(=O)O)C[C@@H]4CC(=O)CC[C@]4(C)[C@H]3CC[C@]12C)c1ccc(Br)s1 [Compound I-190] | 0.25 µM (≈ 0.187 µg/mL) | 0.25 µM (≈ 0.187 µg/mL) | 0.25 µM (≈ 0.187 µg/mL)
CCC(NC(=O)C[C@@H](C)[C@H]1CC[C@H]2[C@@H]3[C@H](O)C[C@@H]4CC(=O)CC[C@]4(C)[C@H]3CC[C@]12C)c1ccc(S(=O)(=O)O)s1 (stereo partly drawn) [Compound I-92] | 16 µM (≈ 9.28 µg/mL) | 32 µM (≈ 18.6 µg/mL) | 16 µM (≈ 9.28 µg/mL)
CC(NC(=O)C[C@@H](C)[C@H]1CC[C@H]2[C@@H]3[C@H](O)C[C@@H]4C[C@H](O)CC[C@]4(C)[C@H]3CC[C@]12C)c1cccs1 (stereo partly drawn) [Compound I-8] | 4 µM (≈ 1.95 µg/mL) | 2 µM (≈ 0.976 µg/mL) | 4 µM (≈ 1.95 µg/mL)
CC(C)C(NC(=O)C[C@@H](C)[C@H]1CC[C@H]2[C@@H]3C(=O)C[C@@H]4CC(=O)CC[C@]4(C)[C@H]3CC[C@]12C)c1ccc(Cl)s1 (stereo partly drawn) [Compound I-75] | 0.5 µM (≈ 0.273 µg/mL) | 0.5 µM (≈ 0.273 µg/mL) | 0.5 µM (≈ 0.273 µg/mL)
C[C@H](CC(=O)NCc1ccccn1)[C@H]1CC[C@H]2[C@@H]3C(=O)C[C@@H]4C[C@H](O)CC[C@]4(C)[C@H]3CC[C@]12C [Compound I-16] | 256 µM (≈ 119 µg/mL) | 256 µM (≈ 119 µg/mL) | 256 µM (≈ 119 µg/mL)
CC[C@@H](NC(=O)C[C@@H](C)[C@H]1CC[C@H]2[C@@H]3[C@H](OC(C)=O)CC4=CC(=O)C=C[C@]4(C)[C@H]3CC[C@]12C)c1ccc(Br)s1 [I-159 -1] | 0.5 µM (≈ 0.308 µg/mL) | 0.5 µM (≈ 0.308 µg/mL) | 0.5 µM (≈ 0.308 µg/mL)
CC[C@@H](NC(=O)C[C@@H](C)[C@H]1CC[C@H]2[C@@H]3[C@H](O)C[C@@H]4C[C@H](O)CC[C@]4(C)[C@H]3CC[C@]12C)c1ccc(Br)s1 [Compound I-138] | 1 µM (≈ 0.581 µg/mL) | 1 µM (≈ 0.581 µg/mL) | 1 µM (≈ 0.581 µg/mL)

SMILES | MIC [1] | MIC [2] | MIC [3]
CC[C@@H](NC(=O)C[C@@H](C)[C@H]1CC[C@H]2[C@@H]3[C@H](O)C[C@@H]4C[C@H](O)CC[C@]4(C)[C@H]3C[C@H](O)[C@]12C)c1ccc(Cl)s1 [Compound I-145] | 32 µM (≈ 17.7 µg/mL) | 32 µM (≈ 17.7 µg/mL) | 16 µM (≈ 8.84 µg/mL)
CC[C@@H](NC(=O)C[C@@H](C)[C@H]1CC[C@H]2[C@@H]3C(=O)C[C@@H]4CC(=O)CC[C@]4(C)[C@H]3CC[C@]12C)c1ccc(C=O)s1 [Compound I-199] | 16 µM (≈ 8.41 µg/mL) | 16 µM (≈ 8.41 µg/mL) | 16 µM (≈ 8.41 µg/mL)
CC[C@@H](NC(=O)C[C@@H](C)[C@H]1CC[C@H]2[C@@H]3[C@H](OC(C)=O)CC4=CC(=O)CC[C@]4(C)[C@H]3CC[C@]12C)c1ccc(Cl)s1 [I-157 -1] | 0.5 µM (≈ 0.287 µg/mL) | 0.5 µM (≈ 0.287 µg/mL) | 0.25 µM (≈ 0.144 µg/mL)
C[C@H](CC(=O)NC(c1cccs1)C1CC1)[C@H]1CC[C@H]2[C@@H]3[C@H](O)C[C@@H]4CC(=O)CC[C@]4(C)[C@H]3CC[C@]12C (stereo partly drawn) [Compound I-85] | 0.5 µM (≈ 0.256 µg/mL) | 0.5 µM (≈ 0.256 µg/mL) | 0.5 µM (≈ 0.256 µg/mL)
CC[C@@H](NC(=O)C[C@@H](C)[C@H]1CC[C@H]2[C@@H]3C(=O)CC4=CC(=O)C=C[C@]4(C)[C@H]3CC[C@]12C)c1ccc(Cl)s1 [Compound I-153] | 0.5 µM (≈ 0.264 µg/mL) | 0.5 µM (≈ 0.264 µg/mL) | 0.5 µM (≈ 0.264 µg/mL)
CC(C)[C@@H](NC(=O)C[C@@H](C)[C@H]1CC[C@H]2[C@@H]3[C@H](O)CC4=CC(=O)CC[C@]4(C)[C@H]3CC[C@]12C)c1ccc(Cl)s1 [Compound I-158-2] | 0.5 µM (≈ 0.273 µg/mL) | 0.5 µM (≈ 0.273 µg/mL) | 0.5 µM (≈ 0.273 µg/mL)
CC(C)[C@H](NC(=O)C[C@@H](C)[C@H]1CC[C@H]2[C@@H]3C(=O)C[C@@H]4CC(=O)CC[C@]4(C)[C@H]3CC[C@]12C)c1ccc(S(=O)(=O)O)s1 [Compound I-82] | > 256 µM | 256 µM (≈ 152 µg/mL) | > 256 µM
CC(C)C(NC(=O)C[C@@H](C)[C@H]1CC[C@H]2[C@@H]3C(=O)C[C@@H]4CC(=O)CC[C@]4(C)[C@H]3CC[C@]12C)c1cccs1 (stereo partly drawn) [Compound I-40] | 4 µM (≈ 2.05 µg/mL) | 2 µM (≈ 1.02 µg/mL) | 2 µM (≈ 1.02 µg/mL)
CC(=O)O[C@@H]1CC2=CC(=O)C=C[C@]2(C)[C@H]2CC[C@]3(C)[C@@H]([C@H](C)CC(=O)N[C@@H](c4ccc(Br)s4)C(C)C)CC[C@H]3[C@H]12 [I-160 -1] | 0.5 µM (≈ 0.315 µg/mL) | 0.5 µM (≈ 0.315 µg/mL) | 0.5 µM (≈ 0.315 µg/mL)
C[C@H](CC(=O)NCc1ccccn1)[C@H]1CC[C@H]2[C@@H]3[C@H](O)C[C@@H]4C[C@H](O)CC[C@]4(C)[C@H]3CC[C@]12C [Compound I-6] | 64 µM (≈ 30 µg/mL) | 64 µM (≈ 30 µg/mL) | 64 µM (≈ 30 µg/mL)
CC(C)[C@@H](NC(=O)C[C@@H](C)[C@H]1CC[C@H]2[C@@H]3[C@H](OC(=O)CCC(=O)O)C[C@@H]4CC(=O)CC[C@]4(C)[C@H]3CC[C@]12C)c1ccc(Cl)s1 [Compound I-181] | 2 µM (≈ 1.3 µg/mL) | 2 µM (≈ 1.3 µg/mL) | 2 µM (≈ 1.3 µg/mL)
C[C@H](CC(=O)NC(c1ccc(S(=O)(=O)O)s1)C1CC1)[C@H]1CC[C@H]2[C@@H]3C(=O)C[C@@H]4CC(=O)CC[C@]4(C)[C@H]3CC[C@]12C (stereo partly drawn) [Compound I-52] | 16 µM (≈ 9.44 µg/mL) | 16 µM (≈ 9.44 µg/mL) | 16 µM (≈ 9.44 µg/mL)
CC(C)[C@@H](NC(=O)C[C@@H](C)[C@H]1CC[C@H]2[C@@H]3[C@H](O)C[C@@H]4CC(=O)CC[C@]4(C)[C@H]3CC[C@]12C)c1ccc(Br)s1 [Compound I-100] | 0.25 µM (≈ 0.148 µg/mL) | 0.25 µM (≈ 0.148 µg/mL) | 0.25 µM (≈ 0.148 µg/mL)
CC(C)[C@H](NC(=O)C[C@@H](C)[C@H]1CC[C@H]2[C@@H]3[C@H](O)C[C@@H]4CC(=O)CC[C@]4(C)[C@H]3CC[C@]12C)c1cccs1 [Compound I-135] | > 256 µM | > 256 µM | > 256 µM
CC(C)[C@@H](NC(=O)C[C@@H](C)[C@H]1CC[C@H]2[C@@H]3[C@H](OP(=O)(O)O)C[C@@H]4CC(=O)CC[C@]4(C)[C@H]3CC[C@]12C)c1ccc(Br)s1 [Compound I-194] | 64 µM (≈ 43.1 µg/mL) | 64 µM (≈ 43.1 µg/mL) | 64 µM (≈ 43.1 µg/mL)
C[C@H](CC(=O)NC(c1cccs1)C1CCCCC1)[C@H]1CC[C@H]2[C@@H]3C(=O)C[C@@H]4CC(=O)CC[C@]4(C)[C@H]3CC[C@]12C (stereo partly drawn) [Compound I-54] | > 256 µM | > 256 µM | 256 µM (≈ 141 µg/mL)
Cc1ccc(C(C)NC(=O)C[C@@H](C)[C@H]2CC[C@H]3[C@@H]4C(=O)C[C@@H]5CC(=O)CC[C@]5(C)[C@H]4CC[C@]23C)s1 (stereo partly drawn) [Compound I-30] | 2 µM (≈ 0.995 µg/mL) | 2 µM (≈ 0.995 µg/mL) | 1 µM (≈ 0.498 µg/mL)
